Values quoted from earlier work as cited in patent US11220528B2, “Compositions and methods for treating pulmonary hypertension” (Marshall University Research Corporation, priority 2017, dated 2022).

Settings: background statement

SMILES: CCCCC[C@H](O)/C=C/[C@@H]1[C@H]2C/C(=C/CCCC(=O)O)O[C@H]2C[C@H]1O [Epoprostenol]
- half-life: 3 to 5 min
